Measurements reported in patent US8841233B2, “Herbicidal compositions comprising 4-amino-3-chloro-5-fluoro-6-(4-chloro-2-fluoro-3-methoxyphenyl) pyridine-2-carboxylic acid or a derivative thereof and 4-hydroxyphenyl-pyruvate dioxygenase (HPPD) inhibitors” (Dow Agrosciences LLC, priority 2012, dated 2014).

Tests used:
ECHCG = experiment: Post-emergence foliar-applied weed control, greenhouse (Example I); assay type: in vivo, Echinochloa crusgalli (L.) Beauv.
Excerpt: (§1) Evaluation of Post-emergence Foliar-Applied Herbicidal Mixtures for Weed Control in Direct Seeded Rice
(§2) Seeds or nutlets of the desired test plant species were planted in a soil matrix prepared by mixing a loam or sandy loam soil (e.g., 28.6 percent silt, 18.8 percent clay, and 52.6 percent sand, with a pH of about 5.8 and an organic matter content of about 1.8 percent) and calcareous grit in an 80 to 20 ratio. The soil matrix was contained in plastic pots with a volume of 1 quart and a surface area of 83.6 square centimeters (cm^2). When required to ensure good germination and healthy plants, a fungicide treatment and/or other chemical or physical treatment was applied. The plants were grown for 8-22 days in a greenhouse with an approximate 14 h photoperiod which was maintained at about 29° C. during the day and 26° C. during the night. Nutrients (Peters Excel® 15-5-15 5-Ca 2-Mg and iron chelate) were applied in the irrigation solution as needed and water was added on a regular basis. Supplemental lighting was provided with overhead metal halide 1000-Watt lamps as necessary. The plants were employed for testing when they reached the first through fourth true leaf stage.
(§3) Treatments consisted of the acid or esters of 4-amino-3-chloro-5-fluoro-6-(4-chloro-2-fluoro-3-methoxy-phenyl)pyridine-2-carboxylic acid (Compound A), each formulated as an SC (suspension concentrate), and various herbicidal components alone and in combination. Forms of Compound A were applied on an acid equivalent basis.
(§4) Other herbicidal components were applied on an active ingredient basis and included 4-hydroxyphenyl pyruvate dioxygenase (HPPD)-inhibiting herbicides mesotrione formulated as Callisto®, sulcotrione formulated as Mikado®, pyrazolynate formulated as Sunbird® 10% GR, and benzobicyclon formulated as Benzobicyclon 3.5%.
(§5) Treatment requirements were calculated based upon the rates being tested, the concentration of active ingredient or acid equivalent in the formulation, and a 12 mL application volume at a rate of 187 L/ha.
(§6) For treatments comprised of formulated compounds, measured amounts of compounds were placed individually in 25 mL glass vials and diluted in a volume of 1.25% (v/v) Agri-Dex® crop oil concentrated to obtain 12× stock solutions. […] Application solutions were prepared by adding an appropriate amount of each stock solution (e.g., 1 mL) and diluted to the appropriate final concentrations with the addition of 10 mL of an aqueous mixture of 1.25% (v/v) crop oil concentrate so that the final spray solutions contained 1.25+/−0.05% (v/v) crop oil concentrate.
(§7) For treatments comprised of formulated and technical compounds, weighed amounts of the technical materials were placed individually in 25 mL glass vials and dissolved in a volume of 97:3 v/v acetone/DMSO to obtain 12× stock solutions, and measured amounts of the formulated compounds were placed individually in 25 mL glass vials and diluted in a volume of 1.5% (v/v) crop oil concentrate or water to obtain 12× stock solutions. […] Application solutions were prepared by adding an appropriate amount of each stock solution (e.g., 1 mL) and diluted to the appropriate final concentrations with the addition of an appropriate amount of an aqueous mixture of 1.5% (v/v) crop oil concentrate so that the final spray solutions contained 1.25% (v/v) crop oil concentrate. As required, additional water and/or 97:3 v/v acetone/DMSO was added to individual application solutions so that the final acetone and DMSO concentrations of the application solutions being compared were 8.1% and 0.25%, respectively.
(§8) All stock solutions and applications solutions were visually inspected for compound compatibility prior to application. Spray solutions were applied to the plant material with an overhead Mandel track sprayer equipped with a 8002E nozzles calibrated to deliver 187 L/ha over an application area of 0.503 m^2 at a spray height of 18 to 20 inches (46 to 50 cm) above average plant canopy height. […]

SCPJU = experiment: as above; assay type: in vivo, Schoenoplectus juncoides (Roxb.) Palla
Excerpt: as §1, §2, §3, §4, §5, §6, §7, §8

SMILES | Visual Weed Control (%) - 20 DAA ECHCG Obs (ECHCG; 4.38 gae/ha) | Visual Weed Control (%) - 22 DAA ECHCG Obs (ECHCG; 5.3 gae/ha) | Visual Weed Control (%) - 20 DAA ECHCG Obs (ECHCG; 8.75 gae/ha) | Visual Weed Control (%) - 22 DAA ECHCG Obs (ECHCG; 10.6 gae/ha) | Visual Weed Control (%) - 22 DAA SCPJU Obs (SCPJU; 5.3 gae/ha) | Visual Weed Control (%) - 22 DAA SCPJU Obs (SCPJU; 10.6 gae/ha) | Visual Weed Control (%) - 22 DAA ECHCG Obs (ECHCG; 4.38 gae/ha) | Visual Weed Control (%) - 22 DAA ECHCG Obs (ECHCG; 8 gae/ha) | Visual Weed Control (%) - 22 DAA ECHCG Obs (ECHCG; 8.75 gae/ha) | Visual Weed Control (%) - 22 DAA ECHCG Obs (ECHCG; 16 gae/ha) | Visual Weed Control (%) - 22 DAA ECHCG Obs (ECHCG; 32 gae/ha) | Visual Weed Control (%) - 20 DAA SCPJU Obs (SCPJU; 4.38 gae/ha) | Visual Weed Control (%) - 20 DAA SCPJU Obs (SCPJU; 8.75 gae/ha)
COc1c(Cl)ccc(-c2nc(C(=O)O)c(Cl)c(N)c2F)c1F [Compound A Acid, 4-amino-3-chloro-6-(4-chloro-2-fluoro-3-methoxyphenyl)-5-fluoropyridine-2-carboxylic acid] | 25% | 65% | 80% | 55% | 60% | 75% | – | – | – | – | – | – | –
COc1c(Cl)ccc(-c2nc(C(=O)OCc3ccccc3)c(Cl)c(N)c2F)c1F [Compound A Benzyl Ester, benzyl ester of 4-amino-3-chloro-5-fluoro-6-(4-chloro-2-fluoro-3-methoxy-phenyl)pyridine-2-carboxylic acid] | 40% | – | – | – | – | – | 40% | 35% | 60% | 65% | 80% | 30% | 60%
